{"source": "patent US20240210394A1", "about": "“MICROORGANISM CAPTURE FROM ANTIMICROBIAL-CONTAINING SOLUTION” (MOMENTUM BIOSCIENCE LIMITED, priority 2019, published 2024)", "key": {"E. coli": {"system": "E. coli", "experiment": "Confirm PCR multiplex (microbial DNA, GrNeg channel) after microbial capture", "type": "cell-based", "parameters": "key: Ct values (qPCR cycle threshold)"}, "S. aureus": {"system": "S. aureus", "experiment": "Blood culture time to positivity (flip time), bead rescue vs no-rescue control", "type": "cell-based", "details": "for Flip time: Bead rescue; for Flip time in hours/mins: 2 h at 37° C.; for Time to positivity in days: 900 cfu/5 ml", "method": "An overnight culture of test organism was prepared in blood/broth medium (50:50 blood:broth medium from a BioMerieux SA culture bottle).\nTen-fold serial dilutions of overnight culture was prepared in blood/broth as required.\nAntibiotic (abx) was added to whole human blood (in citrate-phosphate-dextrose, CPD, an anticoagulant) at required level.\nWhole blood was used as the no-antibiotic control.\nTest dilution(s) of organism was added to blood+antibiotic or blood only at 10 μL per mL of blood (sufficient prepared for experiment requirements). 100 μL plate count sample was taken (TO sample).\nThe inoculated samples were incubated at 37° C. (static) for 2-hour. 100 μL plate count sample was taken (T2 sample).\nFor the control, 5 mL of spiked blood+abx or blood only was added to blood culture bottles (BioMerieux SA culture bottle) using a vial adapter (West Pharmaceutical Services, Inc. PA, US) and incubated in the automated blood culture cabinet (adapter removed).\nFor the ‘rescue’ test, 5 mL of spiked blood+abx or blood only was treated with Momentum Capture Beads (Streptavidin-coated, −300 nm beads, Bio estapor, Merk Cat #BE-M 08/0.3) as below: • Momentum Capture Beads diluted in Detergent-free Microbial Binding Buffer (DMBB—Tris+NaCl)—50 μL beads:700 μL DMBB per clean-up • 750 μL of diluted beads added to 50 mL conical centrifuge tube • 5 mL of broth medium added to tube • 5 mL of spiked blood+abx or blood only added to tube • Incubate on ITL TherMix (Integrated Technologies Ltd. Kent, UK), 32.5° C./30 min/1000 rpm—ramped speed protocol • Magnetise on V&P magnet (V&P scientific Inc, CA, US) for 5 min then remove supernatant • Resuspend beads in 1 mL Detergent-free Wash Buffer (DWB—Tris+NaCl) off magnet and transfer to 2 mL Eppendorf flip-top tube on DynaMag-2 magnet (Thermo Fisher Scientific, Life Technologies Ltd. Paisley, UK) • Magnetise for 5 min then remove supernatant • Resuspend beads in 1 mL DWB off magnet then replace on DynaMag-2 magnet • Magnetise for 5 min then remove supernatant • Resuspend beads in 1 mL DWB, add to a fresh, unused blood culture bottle (BioMerieux SA culture bottle) containing standard blood culture growth medium using a vial adapter, and start incubation (adapter removed). • Blood culture bottles are incubated in the automated blood culture cabinet (BacT/ALERT BioMerieux) which records time to positivity. The “Flip” time is when a bottle turns positive as determined by the automated blood culture cabinet. • “Flip” time of each bottle is recorded. • Plate counts (Total Viable Count TVC) are recorded.\nDay 1: Prepare overnight culture of test organism in blood/broth medium (50:50 blood:broth) and incubate at 37° C. in a shaking incubator.\nDay 2: Prepare ten-fold serial dilution of overnight culture in blood/broth as required • Antibiotic added to whole blood (defibrinated horse blood) at required level • Whole blood as no-antibiotic control • Test dilution(s) of organism added to blood+antibiotic or blood only at 10 μL per mL of blood (sufficient prepared for experiment requirements) • 100 μL plate count sample taken (TO sample) • 2-hour incubation at 37° C. (static), to mimic organism exposure to antimicrobials in the patient • 100 μL plate count sample taken (T2 sample) • 5 mL of spiked blood+abx or blood only added to blood culture bottle (using vial adapter) and incubation started (adapter removed) • 5 mL of spiked blood+abx or blood only (from same source) treated with Momentum Capture Beads as below: • 1. Momentum Capture Beads diluted in Detergent-free Microbial Binding Buffer (DMBB)—50 μL beads:700 μL DMBB per clean-up • 2. 750 μL of diluted beads added to 50 mL conical centrifuge tube • 3. 5 mL of transfer medium added to tube • 4. 5 mL of spiked blood+abx or blood only added to tube • 5."}}, "note": "Several values for one entry are separate records, joined by “and”; a condition that tells them apart may be missing. Identical values can stand only once.", "data": [{"compound": "Sodium polyanethol sulfonate [SPS]", "values": [{"measurement": "Confirm GrNeg results", "setting": "E. coli; WB SPS 0.01 %, EC 1-3 replicates", "result": "27.94 and 29.18 and 28.32"}, {"measurement": "Confirm GrNeg results", "setting": "E. coli; WB SPS 0.01 %, NSC 1-3 replicates", "result": "NoCt"}, {"measurement": "Confirm GrNeg results", "setting": "E. coli; WB SPS 0.02 %, EC 1-3 replicates", "result": "29.15 and 28.16 and 29.75"}, {"measurement": "Confirm GrNeg results", "setting": "E. coli; WB SPS 0.02 %, NSC 1-3 replicates", "result": "NoCt"}, {"measurement": "Confirm GrNeg results", "setting": "E. coli; WB SPS 0.04 %, EC 1-3 replicates", "result": "28.71 and 28.75 and 29.82"}, {"measurement": "Confirm GrNeg results", "setting": "E. coli; WB SPS 0.04 %, NSC 1-3 replicates", "result": "NoCt"}, {"measurement": "Confirm GrNeg results", "setting": "E. coli; WB SPS 0.06 %, EC 1-3 replicates", "result": "31.58 and 29.77 and 29.26"}, {"measurement": "Confirm GrNeg results", "setting": "E. coli; WB SPS 0.06 %, NSC 1-3 replicates", "result": "NaCt and NoCt (2×)"}, {"measurement": "Confirm GrNeg results", "setting": "E. coli; WB SPS 0.08 %, EC 1-3 replicates", "result": "29.20 and 29.80 and 28.87"}, {"measurement": "Confirm GrNeg results", "setting": "E. coli; WB SPS 0.08 %, NSC 1-3 replicates", "result": "NoCt"}, {"measurement": "Confirm GrNeg results", "setting": "E. coli; WB SPS 0.1 %, EC 1-3 replicates", "result": "29.27 and 28.65 and 29.61"}, {"measurement": "Confirm GrNeg results", "setting": "E. coli; WB SPS 0.1 %, NSC 1-3 replicates", "result": "47.82 and NoCt (2×)"}]}, {"compound": "CCN1CCN(C(=O)N[C@@H](C(=O)N[C@@H]2C(=O)N3[C@@H]2SC(C)(C)[C@@H]3C(=O)O)c2ccccc2)C(=O)C1=O", "note": "[Piperacillin]", "values": [{"measurement": "Flip time", "setting": "S. aureus; Piperacillin 96 ug/mL blood, CPD human blood, 750 cfu/5 mL", "result": 0.62, "unit": "days"}, {"measurement": "Flip time", "setting": "S. aureus; Piperacillin 96 ug/mL blood, CPD human blood, 5000 cfu/5 mL", "result": 0.57, "unit": "days"}, {"measurement": "Flip time", "setting": "S. aureus; Piperacillin 96 ug/mL blood, defibrinated horse blood, 5000 cfu/5 ml", "result": 0.78, "unit": "days"}, {"measurement": "Flip time", "setting": "S. aureus; Piperacillin 96 ug/mL blood, defibrinated horse blood, 50000 cfu/5 ml", "result": 0.65, "unit": "days"}, {"measurement": "Flip time", "setting": "S. aureus; S. aureus spike dil 10-3, Piperacillin 96 ug/ml human blood, SA bottle", "result": 0.57, "unit": "days"}, {"measurement": "Flip time", "setting": "S. aureus; S. aureus spike dil 10-4, Piperacillin 96 ug/ml human blood, SA bottle", "result": 0.62, "unit": "days"}, {"measurement": "Flip time in Days", "setting": "S. aureus; Control (no bead rescue), Piperacillin 96 ug/mL blood, CPD human blood, 750 cfu/5 mL", "result": "Neg"}, {"measurement": "Flip time in Days", "setting": "S. aureus; Control (no bead rescue), Piperacillin 96 ug/mL blood, CPD human blood, 5000 cfu/5 mL", "result": "Neg"}, {"measurement": "Flip time in Days", "setting": "S. aureus; Control (no bead rescue), Piperacillin 96 ug/mL blood, defibrinated horse blood, 5000 cfu/5 ml", "result": "Neg"}, {"measurement": "Flip time in Days", "setting": "S. aureus; Control (no bead rescue), Piperacillin 96 ug/mL blood, defibrinated horse blood, 50000 cfu/5 ml", "result": "Neg"}, {"measurement": "Flip time in hours/mins", "setting": "S. aureus; Control (no bead rescue), S. aureus spike dil 10-3, Piperacillin 96 ug/ml human blood, SA bottle", "result": "Negative at 120 h"}, {"measurement": "Flip time in hours/mins", "setting": "S. aureus; Control (no bead rescue), S. aureus spike dil 10-4, Piperacillin 96 ug/ml human blood, SA bottle", "result": "Negative at 120 h"}, {"measurement": "Flip time in Days", "setting": "S. aureus; No bead rescue Control BC, Piperacillin 96 ug/mL blood, 10000 cfu/5 mL", "result": "Neg"}, {"measurement": "Flip time in Days", "setting": "S. aureus; No bead rescue Control BC, Piperacillin 96 ug/mL blood, 50000 cfu/5 mL", "result": "Neg"}, {"measurement": "Time to positivity in days", "setting": "S. aureus; Piperacillin 96 ug/mL blood, Control (no beads)", "result": "Neg"}, {"measurement": "Time to positivity in days", "setting": "S. aureus; Piperacillin 96 ug/mL blood, with magnetic beads in the bottle", "result": "Neg"}]}]}
